{
  "source": "patent US20240238231A1",
  "about": "“EDTA AND EGTA FOR USE IN PRESERVING THE INTEGRITY OF THERAPEUTIC COMPOUNDS” (Axcess (UK) Ltd, priority 2021, published 2024)",
  "key": {"[1]": {"molecular_target": "T1, Trypsin from porcine pancreas (Sus scrofa, UniProt P00761)", "T1 construct": "from tissue; host or cells: porcine pancreas", "T1 sequence (P00761 9-231)": "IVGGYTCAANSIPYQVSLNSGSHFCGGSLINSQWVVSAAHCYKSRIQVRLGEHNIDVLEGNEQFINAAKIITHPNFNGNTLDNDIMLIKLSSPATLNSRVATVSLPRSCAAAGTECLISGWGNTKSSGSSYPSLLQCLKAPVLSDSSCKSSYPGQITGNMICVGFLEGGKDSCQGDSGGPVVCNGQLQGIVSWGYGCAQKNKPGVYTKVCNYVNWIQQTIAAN", "test": "Inhibition of trypsin activity, fluorescence microplate assay with Z-L-arginine-4-methyl-7-coumarinylamide substrate", "assay_type": "biochemical", "conditions": "for effect on the activity of trypsin: pH 7, 30 minutes", "procedure": "A dilute solution of phosphate-buffered saline (PBS) was prepared at a concentration of 0.3 mM phosphate (pH7), and used to dissolve calcium chloride dihydrate or magnesium chloride at a concentration of 0.3 mg/ml. Trypsin from porcine pancreas was dissolved in the Ca/PBS buffer, in either the presence or absence of calcium, at a concentration of trypsin at 0.02 mg/ml. 5 ml aliquots of disodium EDTA (dihydrate) solution were prepared in PBS with and without calcium or magnesium at doubling dilutions from 8 mg/ml downwards, and the pH of each solution adjusted to 7. Trypsin substrate (namely Z-L-arginine-4-methyl-7-coumarinylamide HCl) was dissolved in DMSO at a concentration of 0.125 mg/ml, then diluted 100-fold in Ca/PBS buffer. EDTA solutions were dispensed into the wells of a black microplate (60 ul per well) then 10 ul of trypsin solution was added, followed by 10 ul of substrate. The reaction was allowed to proceed for 30 minutes, and the extent of reaction determined in a fluorescence microplate reader by measuring the fluorescence of the reaction product (coumarin) at excitation wavelength 365 nm, emission 440 nm.\nA dilute solution of phosphate-buffered saline (PBS) was prepared at a concentration of 0.3 mM phosphate (pH7), and used to dissolve calcium chloride dihydrate at a concentration of 0.3 mg/ml. Trypsin from porcine pancreas was dissolved in the Ca/PBS buffer at a concentration of 0.02 mg/ml trypsin. 5 ml aliquots of disodium EGTA (dihydrate) solution were prepared in PBS at doubling dilutions from 8 mg/ml downwards, and the pH of each solution adjusted to 7. Trypsin substrate (namely Z-L-arginine-4-methyl-7-coumarinylamide HCl) was dissolved in DMSO at a concentration of 0.125 mg/ml, then diluted 100-fold in Ca/PBS buffer. EGTA solutions were dispensed into the wells of a black microplate (60 ul per well) then 10 ul of trypsin solution was added, followed by 10 ul of substrate. The reaction was allowed to proceed for 30 minutes, and the extent of reaction determined in a fluorescence microplate reader by measuring the fluorescence of the reaction product (coumarin) at excitation wavelength 365 nm, emission 440 nm.\nA dilute solution of phosphate-buffered saline (PBS) was prepared at a concentration of 0.3 mM phosphate (pH7), and used to dissolve calcium chloride dihydrate at a concentration of 0.3 mg/ml. Trypsin from porcine pancreas was dissolved in the buffer, in either the presence or absence of calcium, at a concentration of 0.02 mg/ml. 5 ml aliquots of disodium EGTA (dihydrate) solution and phenanthroline (Low concentrations of phenanthroline only were employed, because of its limited solubility in aqueous phase) were prepared in PBS with and without calcium at doubling dilutions from 8 mg/ml downwards, and the pH of each solution adjusted to 7. Trypsin substrate (namely Z-L-arginine-4-methyl-7-coumarinylamide HCl) was dissolved in DMSO at a concentration of 0.125 mg/ml, then diluted 100-fold in Ca/PBS buffer. EGTA solutions and phenanthroline were dispensed into the wells of a black microplate (60 ul per well) then 10 ul of trypsin solution was added, followed by 10 ul of substrate. The reaction was allowed to proceed for 30 minutes, and the extent of reaction determined in a fluorescence microplate reader by measuring the fluorescence of the reaction product (coumarin) at excitation wavelength 365 nm, emission 440 nm."}, "chymotrypsin": {"system": "chymotrypsin", "conditions": "in the presence of calcium ions only, FIG. 4", "procedure": "Experiment 1 was repeated, except that chymotrypsin was employed, instead of trypsin, and the experiment was conducted in the presence of calcium ions only."}, "[2]": {"conditions": "in combination with / in the presence of calcium (0.3 mg/ml), FIG. 1 and FIG. 3"}},
  "data": [
    {"smiles": "O=C(O)CN(CCN(CC(=O)O)CC(=O)O)CC(=O)O", "note": "[EDTA]", "values": [
      {"measurement": "effect on the activity of trypsin", "setting": "[1]; EDTA alone (no calcium or magnesium), doubling dilutions from 8 mg/ml, FIG. 1", "value": "significant inhibitory effect"},
      {"measurement": "effect on the activity of trypsin", "setting": "[1]; [2]", "value": "significant inhibitory effect"},
      {"measurement": "effect on the activity of trypsin", "setting": "[1]; in combination with magnesium (0.5 mg/ml), FIG. 1", "value": "significant inhibitory effect"},
      {"measurement": "effect on the protease activity of chymotrypsin", "setting": "chymotrypsin", "value": "inhibitory effect"}
    ]},
    {"smiles": "O=C(O)CN(CCOCCOCCN(CC(=O)O)CC(=O)O)CC(=O)O", "note": "[EGTA]", "values": [
      {"measurement": "effect on the activity of trypsin", "setting": "[1]; EGTA doubling dilutions from 8 mg/ml, presence and absence of calcium ions, FIG. 2", "value": "inhibitory effect"}
    ]},
    {"smiles": "O=C(O)CC(O)(CC(=O)O)C(=O)O", "note": "[citrate, citric acid, reference compound]", "values": [
      {"measurement": "effect on the activity of trypsin", "setting": "[1]; [2]", "value": "no effect"}
    ]},
    {"smiles": "c1cnc2c(c1)ccc1cccnc12", "note": "[phenanthroline, ortho-phenanthroline, reference compound]", "values": [
      {"measurement": "effect on the activity of trypsin", "setting": "[1]; [2]", "value": "no inhibitory effect"}
    ]},
    {"smiles": "[Zn+2]", "note": "[zinc]", "values": [
      {"measurement": "effect of the metal ion on inhibition of trypsin by EDTA or EGTA", "setting": "[1]; metal ion combined with EDTA or EGTA, calcium and magnesium show inhibition", "value": "has no such effect"}
    ]}
  ]
}
